Measurements reported in patent US20200023036A1, “PHARMACEUTICAL COMPOSITION FOR PREVENTING OR TREATING INFLAMMATORY RESPIRATORY DISEASE CONTAINING FUSION PROTEIN IN WHICH CELL-PENETRATING PEPTIDE AND CTCTLA4 PEPTIDE ARE FUSED AS ACTIVE INGREDIENT” (IUCF-HYU (INDUSTRY-UNIVERSITY COOPERATION FOUNDATION HANYANG, priority 2017, published 2020).

Legend:
[1] = tested on: GCE-induced allergic asthma animal model; test: Airway hyperresponsiveness (AHR) to methacholine in GCE-induced allergic asthma animal model (Test Example 2); format: in vivo, BALB/c mice; conditions: 10 μg intranasal together with GCE twice a week for 3 weeks; measured on day 21
Method: The mice reared according to the method of 1) were used. Specifically, the 8-week-old BALB/c mice were sensitized by intranasal administration of PBS (sham) or 120 μg of GCE prepared according to the method of 2) twice a week for 3 weeks.
AHR was measured 4 days after the last GCE administration using a flexiVent 5.1 small-animal ventilator (SCIREQ, Montreal, PQ, Canada). The mice were placed in a whole body plethysmograph (Buxco, USA) and 0.4 mL of methacholine solutions at various concentrations (3.1, 6.25, 12.5, 25 or 50 mg/mL) in aerosols were administered through inhalation for 10 seconds. Penh was measured 1 minute and 2 minutes after the administration and the mean value was determined as the Penh (enhanced pause) value for the corresponding methacholine administration dosage.
The mice reared according to 1) of Experimental methods were used. Specifically, PBS (sham) or 120 μg of GCE prepared according to 2) of Experimental methods was intranasally administered to the 8-week-old BALB/c mice twice a week for 3 weeks. […] On day 21, the mice were anesthetized and hyperresponsiveness to methacholine (MeCh) was measured (see 4) of Experimental methods).
The mice reared according to 1) of Experimental methods were used. […]
On day 21, the animals were anesthetized and hyperresponsiveness to methacholine (MeCh) was measured (see 4) of Experimental methods).

[2] = tested on: GCE-induced allergic asthma animal model; test: Lung tissue observation with PAS and Masson's trichrome stain in GCE-induced allergic asthma animal model (Test Example 3); format: in vivo, BALB/c mice; conditions: 10 μg intranasal together with GCE
Method: The lung was fixed in a 10% formalin solution for a day and tissues were prepared as paraffin blocks and sectioned to 3- to 4-μm thickness using a microtome. The prepared slides were stained with PAS (periodic acid-Schiff) stain or Masson's trichrome stain.
To evaluate the inhibitory effect of the dNP2-ctCTLA-4 fusion protein on the pathophysiology of lungs in the GCE-induced allergic asthma animal model, the lung tissues of each test group and control group of Test Example 2 was observed according to 7) of Experimental methods.
The lung tissue of each test group and control group of Test Example 3 was imaged after staining with PAS. The red region indicates mucus-secreting goblet cells.
The lung tissues of each test group and control group of Test Example 3 were imaged after staining with Masson's trichrome stain. The blue region indicates collagen deposition and fibrosis.

[3] = tested on: GCE-induced allergic asthma animal model; test: Cell number and immune cell distribution in bronchoalveolar lavage fluid (Test Example 4); format: in vivo, BALB/c mice; conditions: 10 μg intranasal together with GCE; versus GCE-administered PBS test group
Method: In order to collect the bronchoalveolar lavage fluid, the mouse lungs were washed with 1 mL of HBSS (Hank's balanced salt solution) with an intubated tube fluid. Total cells in the lavage fluid were counted with a hemocytometer. Then, the lavage fluid was centrifuged and the cells were prepared on slides after centrifugation at 1000 rpm for 3 minutes. The slides were stained with a Hemacolor staining kit (Merck Millipore, Darmstadt, Germany). The cells were differentially counted until the total counted number reached at least 200 according to the standard hemocytologic procedures to count macrophages and eosinophils.
Experimental conditions were designed as in Test Example 2. A bronchoalveolar lavage fluid was obtained from each test group and control group of Test Example 2 and the inhibitory effect of eosinophil infiltration and Th2 cytokine production was investigated. The details of the design of experiments are as follows.
(§1) The mice reared according to 1) of Experimental methods were used. Specifically, 120 μg of GCE prepared according to 2) of Experimental methods was intranasally administered to the 8-week-old BALB/c mice twice a week for 3 weeks. 10 μg of dNP2-ctCTLA-4 (Example 2), dNP2-EGFP (Comparative Example 3) or a vehicle (PBS) was intranasally administered together when the GCE was administered to the mice.
15 minutes after the experiment was completed, a bronchoalveolar lavage fluid (BALF) was obtained by injecting 1 mL of PBS twice to each animal (see 5) of Experimental methods).

[4] = tested on: IL-5, IL-13, IL-4 and IFN-γ; test: Cytokine expression by ELISA in bronchoalveolar lavage and lung tissues (Test Example 4); format: in vivo, BALB/c mice; conditions: 10 μg intranasal together with GCE
Method: The […] obtained by the method of 5) was homogenized using the T-PER tissue protein extraction reagent (Thermo Fisher Scientific, MA, US) to prepare a suspension. The suspension was incubated at 4° C. for 30 minutes and then centrifuged at 2500 rpm for 10 minutes. The supernatant was filtered with a 0.45-μm filter to analyze cytokine expression levels.
as §1
The concentration of IL-5, IL-13, IL-4 and IFN-γ was analyzed with the ELSISA kit and the result was normalized to the total protein concentration of the tissue. The protein concentration was quantified by the Bradford assay. n=5 per each group and the results are presented as mean±s.e.m. (standard error of mean). *p<0.05, **p<0.01.
In this experiment, the bronchoalveolar lavage (BAL) and lung tissues were recovered from each test group and control group and the expression level of IL-13, IL-4 and Th2 cytokines was compared.

IL-13, IL-4 and IFN-γ = test: Cytokine expression by ELISA in bronchoalveolar lavage and lung tissues, comparison with CTLA4-Ig (Test Example 5); format: in vivo, BALB/c mice; conditions: 10 μg intranasal together with GCE
Method: The mice reared according to 1) of Experimental methods were used. Specifically, 120 μg of GCE prepared according to 2) of Experimental methods was intranasally administered to the 8-week-old BALB/c mice twice a week for 3 weeks.
(standard error of mean). *p<0.05, **p<0.01.

[5] = tested on: GCE-induced allergic asthma animal model; test: H&E lung tissue observation and airway epithelial thickness, comparison with CTLA4-Ig (Test Example 5); format: in vivo, BALB/c mice
[6] = tested on: naive CD4 T cells differentiated into Th2 cells; test: Th2 differentiation assay (Test Example 6); format: cell-based, BALB/c mice; conditions: 1 μM for 6 days; anti-CD3/CD28, IL-4; flow cytometry
Method: Mouse naive CD4 T cells were isolated from the 8-week-old BALB/c mice by magnetic-activated cell sorting (MACS, naive CD4 T cell isolation kit, mouse, Miltenyi, Bergisch Gladbach, Germany).
Then, 2.5×10^5 of the isolated cells were seeded onto anti-CD3/anti-CD28 antibody (0.1 μg/mL)-coated 96-well plates. The cells were incubated in the presence of anti-IFN-γ neutralizing antibody (5 μg/mL), IL-2 (50 U/mL), IL-4 (30 ng/mL) and PBS. After adding 1 μM dNP2-EGFP (Comparative Example 3) or 1 μM dNP2-ctCTLA-4 (Example 2) to each well for 6 days, the cells were analyzed by flow cytometry after re-stimulation, protein transport inhibitor treatment and intracellular staining with anti-mouse IFN-γ-FITC and anti-mouse IL-4-PE FACS antibodies.
The experiment was conducted according to 8) of Experimental methods.
MACS-sorted CD4^+ CD62L^hiCD44^− native CD4 T cells isolated from 8-week-old BALB/c mice were used. They were differentiated into Th2 cells by addition of IL-4 during activation with anti-CD3/CD28 antibodies for 6 days.
The result is presented as mean±s.e.m. (standard error of mean) (n=3). **p<0.01. NA (non-activated) denotes a negative control group, not stimulated by cytokines or anti-TcR antibody.

dNP2-ctCTLA-4: fusion protein: cell-penetrating peptide dNP2 (SEQ ID NO 1) linked to the N-terminal of the ctCTLA-4 peptide (SEQ ID NO 2) (KIKKVKKKGRKGSKIKKVKKKGRKKMLKKRSPLTTGVYVKMPPTEPECEKQFQPYFIPIN; Synthetic peptide sequence, dNP2 peptide; Synthetic peptide sequence, ctCTLA-4 peptide)
airway hyperresponsiveness to methacholine (airway resistance and airway elastance) [1]: significantly reduced airway hyperresponsiveness
fibrotic area around the bronchial regions (Masson's trichrome stain) [2]: significantly reduced fibrotic area
inflammatory cells and goblet cells in the lungs (PAS stain) [2]: significantly reduced inflammatory cells and goblet cells
decrease in the number of eosinophils in the bronchoalveolar lavage (BAL) [3]: ≥ 3 times
decrease in the number of macrophages in the bronchoalveolar lavage (BAL) [3]: ≥ 3 times
decrease in the number of total cells in the bronchoalveolar lavage (BAL) [3]: ≥ 3 times
level of IFN-γ ([4]; ELISA): decreased level of IFN-γ
decreased expression levels of IL-5, IL-13, IL-4 and IFN-γ in lung tissues ([4]; ELISA normalized to total protein, versus PBS test group): > 2 times
decreased expression levels of IL-5, IL-13, IL-4 and IFN-γ in the bronchoalveolar lavage (BAL) ([4]; ELISA, versus PBS test group): more than 3 times
levels of IL-13 and IFN-γ in the bronchoalveolar lavage (BAL) and lung tissues (IL-13, IL-4 and IFN-γ): significantly decreased levels of IL-13 and IFN-γ
physiological features of the respiratory epithelium: cell infiltration and airway epithelium thickening (H&E) ([5]; 10 μg intranasal together with GCE): improved physiological features of the respiratory epithelium
pharmacological effect relative to the existing CTLA4-Ig ([5]; intranasal administration, GCE-induced allergic asthma animal model): 2-3 times
cytokine production (IL-4 and/or IL-13-producing CD4 T cells) in Th2 differentiation [6]: significantly reduced cytokine production
